Assays:
NEIL1 [1] = target: T1, NEIL1 (Homo sapiens, UniProt Q96FI4); assay: gel-based incision assay of oligodeoxynucleotides containing site-specific base lesions; format: biochemical; conditions: polyacrylamide gel, reaction quenched at 20 min
T1 construct: made in house
Method: The 384-well fluorogenic assay was carried out in a 20 µL reaction mixture in 20 mM Tris-HCl pH 8.0, 100 mM KCl, and 0.1% BSA, with 5 nM active enzyme and 50 nM substrate. Possible inhibitors were incubated with the enzyme for at least 5 min at room temperature in a black, low-volume 384-well plate before addition of an equal volume of substrate to start the reaction. The plates were spun for 30 s at 1000 rcf to remove bubbles. The reactions were incubated at 37°C and fluorescence data collected on an Infinite M200 (Tecan, Mannedorf, Switzerland) equipped with standard optics (excitation filter 525 nm, and emission filter 598 nm). For the gel-based assay, reactions were initiated as described for the fluorogenic assay, but quenched with 20 µL 95% formamide at 20 min. The products were separated by electrophoresis through a 15% polyacrylamide gel containing 8 M urea and visualized by a Typhoon scanner (GE Life Sciences, Piscataway, NJ). The fraction of cleaved product was measured using ImageQuant software and analyzed using GraphPad Prism 6. […]

NEIL1 [2] = target: T1, NEIL1; assay: NEIL1 excision of FapyAde and FapyGua from γ-irradiated calf thymus DNA by GC-MS/MS; format: biochemical; conditions: 10 µL of 2 mM inhibitor in DMSO, 1 h 37°C
Method: The enzymatic activity of NEIL1 was measured using gas chromatography/isotope-dilution tandem mass spectrometry (GC-MS/MS) and calf thymus DNA samples γ-irradiated at 20 Gy as described, [30]. Aliquots of FapyAde-^13C,^15N2 and FapyGua-^13C,^15N2 were added as internal standards to 50 µg of DNA samples. After drying in a SpeedVac, DNA samples were dissolved in 50 µL of an incubation buffer consisting of 50 mM phosphate buffer (pH 7.4), 100 mM KCl, 1 mM EDTA, and 0.1 mM dithiothreitol, and then incubated with 2 µg NEIL1 for 1 h at 37°C without any inhibitor, DMSO alone, or with 10 µL of an inhibitor solution in DMSO (2 mM). After incubation, 150 µL of cold ethanol was added. The samples were kept at −20°C for 1 h and then centrifuged with 14,000 g for 30 min at 4°C. The supernatant fractions were separated and ethanol removed in a SpeedVac under vacuum. The samples were then frozen in liquid nitrogen and lyophilized overnight. To fully remove DMSO that would interfere with GC-MS/MS analysis, 500 µL water were added to the samples followed by lyophilization overnight. This procedure was repeated twice. Dried samples were derivatized and analyzed by GC-MS/MS as described, [30]. For each data point, three independently prepared samples were used.
Although Gh and Sp are excellent substrates for NEIL1, these are likely not to be the biologically relevant substrates. Thus, to determine if the compounds that were identified above were effective in the inhibition of NEIL1 against its biologically relevant substrates FapyAde and FapyGua, [6], γ-irradiated calf thymus DNA was used as a substrate. The excision by NEIL1 of these substrates from DNA was measured by GC-MS/MS with isotope-dilution. Figure 8 illustrates the excision of FapyAde and FapyGua by NEIL1 from γ-irradiated calf thymus DNA in the absence or presence of inhibitors. […] Some inhibition by DMSO alone was also observed when compared with excision by NEIL1 alone (p = 0.01). However, when compared to DMSO, the inhibitions by P2, P6, P7 and P8 were highly significant (p<0.005). […] A p-value<0.05 was assumed to correspond to statistical significance.

[3] = system: NEIL1, NTH1, OGG1 and FPG; assay: glycosylase/AP lyase cleavage assays with common substrates (Tg, 8-oxo-Gua) across glycosylases; format: biochemical, human; Escherichia coli (FPG); conditions: all enzymes except for NTH1
Method: The 384-well fluorogenic assay was carried out in a 20 µL reaction mixture in 20 mM Tris-HCl pH 8.0, 100 mM KCl, and 0.1% BSA, with 5 nM active enzyme and 50 nM substrate. Possible inhibitors were incubated with the enzyme for at least 5 min at room temperature in a black, low-volume 384-well plate before addition of an equal volume of substrate to start the reaction. The plates were spun for 30 s at 1000 rcf to remove bubbles. The reactions were incubated at 37°C and fluorescence data collected on an Infinite M200 (Tecan, Mannedorf, Switzerland) equipped with standard optics (excitation filter 525 nm, and emission filter 598 nm). For the gel-based assay, reactions were initiated as described for the fluorogenic assay, but quenched with 20 µL 95% formamide at 20 min. The products were separated by electrophoresis through a 15% polyacrylamide gel containing 8 M urea and visualized by a Typhoon scanner (GE Life Sciences, Piscataway, NJ). The fraction of cleaved product was measured using ImageQuant software and analyzed using GraphPad Prism 6.
In humans, several glycosylases, including OGG1, NTH1, NEIL2, and NEIL3 may participate in the removal of a wide variety of oxidized bases. […] To address this question, assays were designed to measure inhibition of OGG1 and NTH1, as well as the Escherichia coli glycosylase-AP lyase, FPG. […]

T1 sequence (Q96FI4 whole entry): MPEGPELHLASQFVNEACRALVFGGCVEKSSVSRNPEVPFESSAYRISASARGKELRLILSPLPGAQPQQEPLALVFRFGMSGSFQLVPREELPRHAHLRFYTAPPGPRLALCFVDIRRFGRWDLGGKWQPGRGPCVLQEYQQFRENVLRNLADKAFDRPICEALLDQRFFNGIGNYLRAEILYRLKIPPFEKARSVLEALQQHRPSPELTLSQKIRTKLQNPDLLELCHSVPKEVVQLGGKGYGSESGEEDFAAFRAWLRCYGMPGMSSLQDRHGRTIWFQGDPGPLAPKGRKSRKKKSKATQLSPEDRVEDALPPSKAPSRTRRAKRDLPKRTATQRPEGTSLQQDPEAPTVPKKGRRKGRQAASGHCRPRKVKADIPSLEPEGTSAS

| Compound | IC50 (NEIL1 [1]) [µM] | inhibition of NEIL1 excision of FapyAde and FapyGua (NEIL1 [2]) | relative inhibition among the compounds [3] |
| --- | --- | --- | --- |
| Cc1nc2ccc(Nc3nc(Nc4c(C)cc(/C=C/C#N)cc4C)nc4[nH]cnc34)cc2s1 [Purine P6] | 9.2 | significantly reduced the activity of NEIL1 |  |
| Cc1cc(/C=C/C#N)cc(C)c1Nc1nc(Nc2ccc3scnc3c2)c2nc[nH]c2n1 [Purine P2] | 28 | significantly reduced the activity of NEIL1 |  |
| Cc1cc(/C=C/C#N)cc(C)c1Nc1nc(Nc2ccc3c(c2)OCO3)c2nc[nH]c2n1 [Purine P8] | 15.2 | significantly reduced the activity of NEIL1 | poorest inhibition |
| Cc1cc(/C=C/C#N)cc(C)c1Nc1nc(Nc2ccc3c(c2)CCC3)c2nc[nH]c2n1 [Purine P7] | 11.7 | significantly reduced the activity of NEIL1 |  |
